Experimental data reported in patent US6361780B1, “Microporous drug delivery system” (Cardiac Pacemakers, Inc., priority 1998, dated 2002).

Test: In vitro elution testing of drug-loaded collars (light absorption of solution at 242 nm)
Type: physicochemical
Settings: dried collar loaded from aqueous solution, then immersed in water
Experimental: FIG. 3 is a graph of radiation absorption (at 242 nm) versus time to measure the elution of dexamethasone acetate.
* denotes the use of an approximation during the calculation of values. […] The soaked collars were then dried for three hours and the delivered for elution testing. Elution testing was done by in vitro testing of the light absorption of a solution into which the collars were placed. The absorption at 242 nm was measured (a wavelength at which dexamethasone acetate strongly absorbs) and the release of the drug noted by increasing levels of absorbance, as shown in FIG. 3. […] Pore size would be estimated by taking the largest linear dimensions within each of the open areas and using that linear value as the largest dimension for that pore.
The rate of release from the collars is intended to be highly tailored to the specific ultimate use intended for the catheter or lead. The leads which may be used include traditional leads such as cardiac leads, but may also include other leads such as leads to organs that produce enzymes and hormones (as in the electrically stimulated treatment for Parkinsonism to accelerate the natural production of L-dopa), in stimulating breathing (in the prevention of SIDS or control of sleep apnea), neurological leads, hearing related leads, tinitus suppression leads, and the like. […]

- removal of drug from the pores on immersion: removed from the pores over time
SMILES: CC(=O)OCC(=O)[C@@]1(O)[C@H](C)C[C@H]2[C@@H]3CCC4=CC(=O)C=C[C@]4(C)[C@@]3(F)[C@@H](O)C[C@@]21C [dextramethasone acetate, dexamethasone acetate]
